Laboratory results as given in patent US5753709A, “N-acyl-2 aryl cyclopropylmethylamine derivatives as melatonergics” (Bristol-Myers Squibb Company, priority 1996, dated 1998).

Target: T1, human melatonin receptor (human ML1A) (Homo sapiens, UniProt P48039)
T1 construct: expressed in transfected cells; host or cells: COS-1 cells (transient, pcDNAI, DEAE-dextran); membrane homogenates
Experiment: Melatonergic binding: displacement of 2-[125I]-iodomelatonin at the human melatonin receptor (human ML1A in COS-1 membranes)
Conditions: displacement of 2[125I]-Iodomelatonin (100 pM), 37° C., 1 hour
Protocol: The melatonergic binding of the compounds of Formula I was determined by a modification of the method of Reppert, S. M. et al. (Neuron, Volume 13, pages 1177-1185, 1994). […] The reagents, membranes, and other parameters used in the assay are described below:
(a) 50 mM Tris buffer containing 12.5 mM MgCl2, and 2 mM EDTA (pH 7.4 at 37° C.).
(b) Wash buffer: 20 mM Tris base containing 2 mM MgCl2 (pH 7.4 at room temperature).
(c) 6-Chloromelatonin (10^-5 M final concentration).
(d) 2-[^125 I]-Iodomelatonin (100 pM final concentration). (Source: NEN) Membrane preparation: The cDNA (human ML1A) in pcDNAI was introduced into COS-1 cells by the DEAE-dextran method. Three days later, after media removal, the plates were washed with buffered saline; the cells removed using Hank's balanced salt solution and pelleted. The supernant was discarded and the pellets frozen. For membrane homogenates, the pellets were thawed and resuspended in TME buffer, Tris base, MgCl2, EDTA (pH 7.4 at 37° C.), and supplemented with aprotinin, leupeptin, and phenylmethylsulfonyl fluoride. The cells were homogenized and centrifuged; the resulting pellet resuspended in TME and frozen. At assay, the small aliquot was thawed on ice and resuspended in TME buffer. Incubation: 37° C. for 1 hour. Reaction is terminated by filtration.

T1 sequence (P48039 whole entry): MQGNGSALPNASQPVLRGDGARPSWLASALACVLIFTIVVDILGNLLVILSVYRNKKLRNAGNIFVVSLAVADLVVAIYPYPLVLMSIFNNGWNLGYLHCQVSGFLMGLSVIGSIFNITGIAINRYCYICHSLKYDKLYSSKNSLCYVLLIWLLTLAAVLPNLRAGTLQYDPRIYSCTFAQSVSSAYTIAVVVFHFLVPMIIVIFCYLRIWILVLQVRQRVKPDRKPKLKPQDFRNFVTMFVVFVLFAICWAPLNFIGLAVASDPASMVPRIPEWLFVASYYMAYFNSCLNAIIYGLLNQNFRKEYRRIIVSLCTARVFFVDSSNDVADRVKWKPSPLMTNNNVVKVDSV

SMILES: CCC(=O)NC[C@@H]1C[C@H]1c1cccc(OC)c1 (relative stereo) [Example 18, (trans)-N-[[2-(3-Methoxyphenyl)cyclopropyl]methyl] propanamide]
- IC50 (Table 4): < 5 nM

SMILES: COc1ccc(F)c([C@@H]2C[C@H]2CNC(=O)C(C)C)c1 (relative stereo) [Example 1, (trans)-N-[[2-(2-Fluoro-5-methoxyphenyl)cyclopropyl]methyl]-2-methylpropanamide]
- IC50 (Table 4): 40 to 250 nM

SMILES: CCCCCCCCCCCCOc1cccc([C@@H]2C[C@H]2CNC(=O)CCC)c1 (relative stereo) [Example 58, (trans)-N-[[2-[(3-Dodecyloxy)phenyl]cyclopropyl]methyl] butanamide]
- IC50 (Table 5): 5 to 40 nM

SMILES: CCCCCCCCCCCOc1cccc([C@@H]2C[C@H]2CNC(=O)CCC)c1 (relative stereo) [Example 57, (trans)-N-[[2-[(3-Undecyloxy)phenyl]cyclopropyl]methyl] butanamide]
- IC50 (Table 5): 5 to 40 nM

SMILES: C#CC(C)=CCOc1cccc([C@@H]2C[C@H]2CNC(=O)CCC)c1 (relative stereo) [Example 122]
- IC50 (Table 5): 5 to 40 nM

SMILES: C=CCCCOc1cccc([C@@H]2C[C@H]2CNC(=O)CCC)c1 (relative stereo) [Example 105]
- IC50 (Table 5): 5 to 40 nM

SMILES: CCCC(=O)NC[C@@H]1C[C@H]1c1cccc(OCCCCC(C)(C)C#N)c1 (relative stereo) [Example 107]
- IC50 (Table 5): 40 to 250 nM

SMILES: CCCC(=O)NC[C@@H]1C[C@H]1c1cccc(OCCCCCc2ccccc2)c1 (relative stereo) [Example 110, (trans)-N-[[2-[3-[(5-Phenylpent-1-yl)oxy]phenyl]cycloprop-1-yl]methyl] butanamide]
- IC50 (Table 5): < 5 nM

SMILES: CC(C)C(=O)NC[C@@H]1C[C@H]1c1cccc(F)c1 (single isomer, unassigned) [Example 65, (-)-(trans)-N-[[2-(3-Fluorophenyl)cycloprop-1-yl]methyl]-2-methylpropanamide]
- IC50 (Table 5): 250 to 600 nM

SMILES: CCCC(=O)NC[C@@H]1C[C@H]1c1cc(OCCCc2cccc(OC)c2)ccc1I (single isomer, unassigned) [Example 93, (-)-(trans)-N-[[2-[2-Iodo-5-[3-(3-methoxyphenyl)propoxy]phenyl]cycloprop-1-yl)methyl] butanamide]
- IC50 (Table 5): 5 to 40 nM

SMILES: CCCC(=O)NC[C@@H]1C[C@H]1c1cc(OC(F)(F)F)ccc1Br (relative stereo) [Example 72]
- IC50 (Table 5): 40 to 250 nM

SMILES: COc1cccc([C@@H]2C[C@H]2CNC(C)=O)c1 (relative stereo) [Example 19, (trans)-N-[[2-(3-Methoxyphenyl)cyclopropyl]methyl] acetamide]
- IC50 (Table 4): 5 to 40 nM

SMILES: COc1cccc([C@@H]2C[C@H]2CNC(=O)C(C)C)c1 (relative stereo) [Example 21]
- IC50 (Table 4): 5 to 40 nM

SMILES: COc1cccc([C@H]2[C@H](CNC(=O)C(C)C)C2(F)F)c1 (relative stereo) [Example 134, (trans)-N-[[3-(3-Methoxyphenyl)-2,2-difluoro--cycloprop-1-yl]methyl]-2-methylpropanamide]
- IC50 (Table 6): 40 to 250 nM

SMILES: CCCCCCCCCOc1cccc([C@@H]2C[C@H]2CNC(=O)CCC)c1 (relative stereo) [Example 55, (trans)-N-[[2-[3-(Nonyloxy)phenyl]cyclopropyl]methyl] butanamide]
- IC50 (Table 5): 40 to 250 nM

SMILES: CCCC(=O)NC[C@@H]1C[C@H]1c1cccc(OCCCc2cccc(OC)c2)c1 (single isomer, unassigned) [Example 84, (-)-(trans)-N-[[2-[3-[3-(3-Methoxyphenyl)propoxy]phenyl]cycloprop-1-yl)methyl] butanamide]
- IC50 (Table 5): < 5 nM

SMILES: CCCC(=O)NC[C@@H]1C[C@H]1c1cccc(OC)c1 (relative stereo) [Example 2, (trans)-N-[[2-(3-Methoxyphenyl)cyclopropyl]methyl] butanamide]
- IC50 (Table 4): < 5 nM

SMILES: CCCCCCCCOc1cccc([C@@H]2C[C@H]2CNC(=O)CCC)c1 (relative stereo) [Example 54, (trans)-N-[[2-[(3-Octyloxy)phenyl]cyclopropyl]methyl] butanamide]
- IC50 (Table 5): 5 to 40 nM

SMILES: CCCC(=O)NC[C@@H]1C[C@H]1c1cccc(OCC)c1 (relative stereo) [Example 48]
- IC50 (Table 5): 5 to 40 nM
